The source of these data is BindingDB's records for PubMed 9223568 (Yamanouchi Pharmaceutical, 1997).

Molecules are shown by their SMILES. pKi: −log10 of the molar value. Values joined by “and” are separate entries in the source; they are usually repeats but may differ in a detail not shown here. Equal values may be shown once. Numbered stars: 1 amine (or outer) side, 2 acyl side, 3 side chain; on linkers, the order of the positions; unused ones are H or OH. Bridge positions count the residues as written; N and C are the ends. Peptide text beside a SMILES is read from it. X1 = O=C(CC1(S[*:2])CCCCC1)[*:1]

One test concerns the target T1, Oxytocin receptor (Rattus norvegicus, UniProt P70536).
T1 sequence (P70536 whole entry): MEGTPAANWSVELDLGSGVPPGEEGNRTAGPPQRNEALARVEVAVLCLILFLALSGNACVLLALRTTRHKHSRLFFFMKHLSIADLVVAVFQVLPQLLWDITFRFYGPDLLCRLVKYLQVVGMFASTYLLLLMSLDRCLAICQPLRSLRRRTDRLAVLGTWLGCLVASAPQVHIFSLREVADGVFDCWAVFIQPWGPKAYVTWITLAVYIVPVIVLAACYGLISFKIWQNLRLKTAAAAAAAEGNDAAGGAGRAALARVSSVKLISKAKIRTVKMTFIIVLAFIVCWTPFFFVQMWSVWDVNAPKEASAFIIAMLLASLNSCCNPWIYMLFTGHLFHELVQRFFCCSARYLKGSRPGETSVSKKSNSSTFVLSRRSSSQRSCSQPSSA

The target of a further test is Vasopressin V1a receptor (Rattus norvegicus, UniProt P30560).
Another test addresses T2, Vasopressin V1b receptor (Rattus norvegicus, UniProt P48974).
T2 sequence (P48974 whole entry): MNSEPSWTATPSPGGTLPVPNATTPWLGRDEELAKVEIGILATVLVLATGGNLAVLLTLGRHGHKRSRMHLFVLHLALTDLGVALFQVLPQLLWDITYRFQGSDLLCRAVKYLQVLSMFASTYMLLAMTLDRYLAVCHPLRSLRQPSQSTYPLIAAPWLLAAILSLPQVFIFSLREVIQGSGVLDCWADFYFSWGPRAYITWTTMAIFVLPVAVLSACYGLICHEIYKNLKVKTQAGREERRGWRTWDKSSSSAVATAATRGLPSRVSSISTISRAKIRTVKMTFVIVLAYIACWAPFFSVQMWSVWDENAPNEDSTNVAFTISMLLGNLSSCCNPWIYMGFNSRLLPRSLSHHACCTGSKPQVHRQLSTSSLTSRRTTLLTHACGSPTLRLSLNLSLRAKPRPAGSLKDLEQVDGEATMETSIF

For the next test, the target named is Vasopressin V2 receptor (Rattus norvegicus, UniProt Q00788).
Vasopressin V2 receptor, sequence (Q00788 whole entry): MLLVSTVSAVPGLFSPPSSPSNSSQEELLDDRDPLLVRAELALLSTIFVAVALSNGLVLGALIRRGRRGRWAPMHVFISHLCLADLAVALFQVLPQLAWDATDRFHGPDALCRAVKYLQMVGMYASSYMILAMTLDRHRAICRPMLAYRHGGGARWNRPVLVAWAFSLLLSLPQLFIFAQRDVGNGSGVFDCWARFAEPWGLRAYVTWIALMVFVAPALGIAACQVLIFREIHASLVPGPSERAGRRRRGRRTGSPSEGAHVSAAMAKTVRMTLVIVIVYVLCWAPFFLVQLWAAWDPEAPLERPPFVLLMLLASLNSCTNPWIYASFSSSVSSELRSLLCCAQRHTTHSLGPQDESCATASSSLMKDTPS

Vasopressin V1a receptor, sequence (P30560 whole entry): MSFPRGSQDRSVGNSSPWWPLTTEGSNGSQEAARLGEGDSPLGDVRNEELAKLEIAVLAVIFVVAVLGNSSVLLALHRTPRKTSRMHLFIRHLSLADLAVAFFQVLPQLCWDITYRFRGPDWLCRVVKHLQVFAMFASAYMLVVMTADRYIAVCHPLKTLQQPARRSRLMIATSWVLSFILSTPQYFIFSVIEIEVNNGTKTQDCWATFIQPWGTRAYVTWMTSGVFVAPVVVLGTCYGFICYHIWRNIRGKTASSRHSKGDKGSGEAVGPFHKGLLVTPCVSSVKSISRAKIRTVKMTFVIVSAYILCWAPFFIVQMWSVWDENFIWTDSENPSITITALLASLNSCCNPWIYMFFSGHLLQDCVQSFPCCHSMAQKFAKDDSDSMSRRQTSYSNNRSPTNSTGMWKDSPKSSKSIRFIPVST

On to `Cc1ccccc1C(=O)Nc1ccc(C(=O)N2CCCC(N(C)C)c3ccccc32)cc1` (stereo not given), for which the pKi is 5.81 on Oxytocin receptor, 6.63 on Vasopressin V1a receptor and less than 5.00 on Vasopressin V1b receptor.

For `COc1ccc(C[C@@H]2NC(=O)CC3(CCCCC3)SSC[C@@H](C(=O)N3CCC[C@H]3C(=O)N[C@@H](CCCN=C(N)N)C(=O)NCC(N)=O)NC(=O)[C@H](CC(N)=O)NC(=O)[C@H](CCC(N)=O)NC(=O)[C@H](Cc3ccccc3)NC2=O)cc1` [NSC_105077] (Y(Me)FQNCPRG-NH2; linker N-5 via X1), the pKi at Vasopressin V2 receptor was 7.40 and 7.00; at Vasopressin V1a receptor, 8.75 and 9.48; on Vasopressin V1b receptor, 7.42.

With `CC(=O)NCCCOc1ccc(C(=O)N2CCC(N3C(=O)CCc4ccccc43)CC2)cc1` [N-(3-(4-(4-(2-oxo-3,4-dihydroquinolin-1(2H)-yl)piperidine-1-carbonyl)phenoxy)propyl)acetamide], the pKi at Vasopressin V2 receptor was less than 5.00; on Oxytocin receptor, 6.48; on Vasopressin V1a receptor it was 7.63 and 7.83; at Vasopressin V1b receptor it was less than 5.00.

Take `NC(=O)CC[C@@H]1NC(=O)[C@H](Cc2ccccc2)NC(=O)[C@H](Cc2ccc(O)cc2)NC(=O)CCSSC[C@@H](C(=O)N2CCC[C@H]2C(=O)N[C@H](CCCN=C(N)N)C(=O)NCC(N)=O)NC(=O)[C@H](CC(N)=O)NC1=O` [NSC_64759]: at Vasopressin V2 receptor, the pKi is 8.71 and 8.10.

For the compound `Cc1nc2c([nH]1)-c1ccccc1N(C(=O)c1ccc(NC(=O)c3ccccc3-c3ccccc3)cc1)CC2` [CONIVAPTAN], the negative-log Ki (pKi) at Vasopressin V2 receptor was 8.52 and 9.42; at Oxytocin receptor, 7.35; at Vasopressin V1a receptor, 9.32 and 9.62; on Vasopressin V1b receptor it was less than 5.00.
